Test results as given in publication PMC7060258 (Scientific Reports, 2020).
No end group written: not given here.

Key:
rKv1.6 = test: Two-electrode voltage clamp, rKv1.6 in X. laevis oocytes; type: cell-based; settings: 10 μM, 18–22 °C, n ≥ 3
Protocol: (§1) For the expression of the voltage-gated potassium channels (rKv1.1, rKv1.2, hKv1.3, rKv1.4, rKv1.5, rKv1.6, Shaker IR and hERG) in X. laevis oocytes, the linearized plasmids were transcribed using the T7 or SP6 mMESSAGE-mMACHINE transcription kit (Ambion, USA). The harvesting of stage V–VI oocytes from an anaesthetized female X. laevis frog was previously described. Oocytes were injected with 50 nl of cRNA at a concentration of 1 ng/nl using a micro-injector (Drummond Scientific, USA). The oocytes were incubated in a solution containing (in mM): NaCl, 96; KCl, 2; CaCl2, 1.8; MgCl2, 2; HEPES, 5 (pH 7.4), supplemented with 50 mg/l gentamycin sulfate.
(§2) Two-electrode voltage-clamp recordings were performed at room temperature (18–22 °C) using a Geneclamp 500 amplifier (Molecular Devices, USA) controlled by a pClamp data acquisition system (Axon Instruments, USA), as described in[47]. Whole cell currents from oocytes were recorded 1–4 days after injection. Bath solution composition was ND96 (in mM): NaCl, 96; KCl, 2; CaCl2, 1.8; MgCl2, 2 and HEPES, 5 (pH 7.4). Voltage and current electrodes were filled with 3 M KCl. The resistances of both electrodes were kept between 0.7 and 1.5 MΩ. […] All data were analysed using pClamp Clampfit 10.0 (Molecular Devices, Downingtown, PA, USA) and Origin 7.5 software (Originlab, Northampton, MA, USA).

[1] = system: human neutrophil elastase; test: SPR interaction with neutrophil elastase; type: binding; settings: for SPR binding to neutrophil elastase (in words): peptide immobilized on CM4 chip; for ka, association rate constant / kd, dissociation rate constant: protease 1 nM to 5 μM
Protocol: The interaction of the peptides with serine proteinases (trypsin, α-chymotrypsin, human neutrophil elastase, pancreatic kallikrein and cathepsin G) was studied using the surface plasmon resonance (SPR) method. The peptides were immobilized on a CM4 sensor chip. […] Kinetic parameters were calculated at 25 °C. Obtained data indicated the formation of tight complexes and eliminated non-specific binding (Table 2).
The study of the interaction of serine proteinases with rHCIQ2c1 and rHCIQ4c7 was performed on SPR biosensor Biacore 3000 (GE Healthcare, USA) running under the program “Biacore 3000 Control Software v.1.0”. The evaluation of data was carried out using “Biacore Evaluation v.4.1”. Peptides were covalent immobilized on carboxymethylated surface of the Biacore CM4 sensor chip (GE Healthcare, USA) activated by EDC/NHS (N-hydroxysuccinimide/1-ethyl-3-(3-dimethylaminopropyl)carbodiimide hydrochloride) mixture by the injection of peptide solution (100 µg/ml) in 10 mM sodium acetate (pH 5.5) during 10 min with flow rate 5 µl/min. Quantities of immobilized peptides were 970 RU (resonance units, 1 RU corresponds 1 pg peptide) for rHCIQ2c1 and 460 RU for rHCIQ4c7. In all of the experiments, the flow cell 1 (Fc1) without the immobilized polypeptides was considered as the reference cell for the correction of the signal responses. HBS (HEPES buffered saline-NaCl): 0.15 M NaCl, 0.01 M HEPES, pH 7.4 (cat. no. BR-1003-69, GE Healthcare, USA) was used as the running buffer for the SPR assays. Protease solutions at concentrations from 1 nM to 5 μM were passed through measuring and control biosensor cells at 25 °C during 5 min with a flow rate 5 µl/min. Further complex breakdown was recorded during at most 10 min. After each cycle of SPR measurement, the sensing surface was regenerated by the injection of 50 mM NaOH for 0.5 min at a flow rate of 50 μl/min. Changes in Gibbs free energy (ΔG) at 25 °C were calculated by the following equation:1 ΔG=RTlnKD, where KD is the dissociation constant. Changes in enthalpy (ΔH) and entropic term (−TΔS) were calculated from the linear equation:2 ΔG=ΔH−TΔS, using the liner approximation of temperature dependence of ΔG (Van’t Hoff diagram).

hKv1.3 = test: Two-electrode voltage clamp, hKv1.3 in X. laevis oocytes; type: cell-based; settings: 10 μM, 18–22 °C, n ≥ 3
Protocol: as §1, §2

trypsin = test: Thermodynamic parameters of complexes with trypsin; type: binding; settings: complex with trypsin, SPR
Protocol: The magnitudes of free energy change (∆G) of the complexes differed slightly from the same complexes of HCRG1 and HCRG2 and were lower than for the InhVJ ones.
The study of the interaction of serine proteinases with rHCIQ2c1 and rHCIQ4c7 was performed on SPR biosensor Biacore 3000 (GE Healthcare, USA) running under the program “Biacore 3000 Control Software v.1.0”. The evaluation of data was carried out using “Biacore Evaluation v.4.1”. Peptides were covalent immobilized on carboxymethylated surface of the Biacore CM4 sensor chip (GE Healthcare, USA) activated by EDC/NHS (N-hydroxysuccinimide/1-ethyl-3-(3-dimethylaminopropyl)carbodiimide hydrochloride) mixture by the injection of peptide solution (100 µg/ml) in 10 mM sodium acetate (pH 5.5) during 10 min with flow rate 5 µl/min. Quantities of immobilized peptides were 970 RU (resonance units, 1 RU corresponds 1 pg peptide) for rHCIQ2c1 and 460 RU for rHCIQ4c7. In all of the experiments, the flow cell 1 (Fc1) without the immobilized polypeptides was considered as the reference cell for the correction of the signal responses. […] Further complex breakdown was recorded during at most 10 min. […] Changes in enthalpy (ΔH) and entropic term (−TΔS) were calculated from the linear equation:2 ΔG=ΔH−TΔS, using the liner approximation of temperature dependence of ΔG (Van’t Hoff diagram).

[2] = system: murine neuroblastoma Neuro2a cells; test: 6-OHDA-induced cytotoxicity, cell viability (MTT); type: cell-based; settings: for Increase of cell viability relative to cells treated with 6-OHDA: 10 μM peptide, 30 min before 6-OHDA 25 µM, mean of three independent experiments
Protocol: Effects of rHCIQ2c1 and rHCIQ4c7 were studied using murine neuroblastoma Neuro2a cells in the presence of 6-OHDA (25 µM). After incubation of Neuro2a cells with recombinant peptides and 6-OHDA for 24 h, the cell viability was evaluated using MTT assay.
The cytoprotective activities of peptides was examined, as described previously. Neuro2a murine neuroblastoma cells (ATCC CCL-131) (American Type Culture Collection, Virginia, USA) were cultivated in DMEM medium (BioloT, Russia) with 10% of fetal bovine serum (FBS, BioloT, Russia) and 80 µg/ml gentamicine (BioloT, Russia). The cells were seeded onto 96-well plate at concentration of 1 × 10^3 cells per well. Substances were added at different concentrations, and then cells were incubated for 30 min at 37 °C and 5% CO2. Cells were treated with 6-OHDA (25 μM) for 24 h at 37 °C with 5% CO2. Thereafter, medium was replaced with clean serum-free medium, and cells were treated with 3-(4,5-dimethylthiazol-2-yl)-2,5-diphenyltetrazolium bromide (MTT) for 4 h[77]. Then the medium was collected and whole cells were lysed in 100% dimethylsulfoxide (DMSO), the absorbance was measured at 570 nm using Multiscan FC (Thermo Fisher Scientific, USA). […] The results were expressed as the mean ± SD of three independent experiments.

rKv1.5 = test: Two-electrode voltage clamp, rKv1.5 in X. laevis oocytes; type: cell-based; settings: 10 μM, 18–22 °C, n ≥ 3
Protocol: as §1, §2

[3] = neutrophil elastase, SPR Biacore 3000, peptide immobilized on CM4 chip, HBS pH 7.4, 25 °C

Substance	Activity on Kv1.6 (rKv1.6)	SPR binding to neutrophil elastase (in words) ([1]; SPR)	KA, association constant [1, 3] [M⁻¹]	ka, association rate constant [1, 3] [s/M]	kd, dissociation rate constant [1, 3] [s⁻¹]	Activity on Kv1.3 (hKv1.3)	∆H, enthalpy change (trypsin; 10–40 °С, Van't Hoff diagram) [kcal/mol]	∆G, Gibbs energy change (trypsin; 25 °C, ΔG=RTlnKD)	Increase of cell viability relative to cells treated with 6-OHDA ([2]; 24 h, MTT) [%]	Significance of effect on viability of 6-OHDA-treated cells ([2]; 10 μM, 6-OHDA 25 µM, 24 h, * p < 0.05)	Toxicity to Neuro2a cells ([2]; 10 μM, MTT)	Concentration of maximum cytoprotective activity ([2]; 6-OHDA 25 µM, 24 h, MTT) [µM]	Dose-response of cytoprotective effect ([2]; 6-OHDA 25 µM, 24 h, MTT)	Activity on Kv1.5 (rKv1.5)	KD with elastase relative to rHCIQ2c1 ([1]; SPR, 25 °C)	Kd ([1]; neutrophil elastase, SPR Biacore 3000, peptide immobilized on CM4 chip, HBS pH 7.4, 25 °C, read-out: KD, dissociation constant) [nM]
rHCIQ2c1: recombinant Kunitz-peptide of Heteractis crispa, most prevalent isoform, mature peptide 58 aa, expressed in E. coli (IQGNICSEPKKVGRCRGSFPRFYFDSETGKCTPFIYGGCGGNGNNFETLHACRAICRA; ends and bridges not checked; cysteine pairing not given here)	neither 10 μM of rHCIQ2c1 nor rHCIQ4c7 exerted any activity on the Kv channels	specifically binds to all target proteinases	7.9e+06	68000	0.00861	neither 10 μM of rHCIQ2c1 nor rHCIQ4c7 exerted any activity on the Kv channels	17.28	–54.70 kJ/mol	47	The reliable effect was revealed	non-toxic	10	linear dose-dependent character	neither 10 μM of rHCIQ2c1 nor rHCIQ4c7 exerted any activity on the Kv channels		
rHCIQ4c7: recombinant Kunitz-peptide of Heteractis crispa, isoform with the rare substitution Gly17Glu	neither 10 μM of rHCIQ2c1 nor rHCIQ4c7 exerted any activity on the Kv channels	bounds to trypsin and elastase only	1.05e+06	11900	0.0114	neither 10 μM of rHCIQ2c1 nor rHCIQ4c7 exerted any activity on the Kv channels			14		non-toxic			neither 10 μM of rHCIQ2c1 nor rHCIQ4c7 exerted any activity on the Kv channels	binding with elastase differed insignificantly	955
